Experiments:
[1] = biological target: GST tagged BCl-xL ΔC25 protein (Homo sapiens, UniProt Q07817); experiment: Alphascreen competition binding assay, GST tagged Bcl-xL vs biotinylated Bim BH3-26 peptide; details: competition with Bim BH3-26 peptide; unit inferred
Description: (§1) Measurement of competition of compounds of the invention with Bim26-mer for a Bcl-2 homologue binding site.
(§2) Alphascreen (Amplified Luminescent Proximity Homogenous Assay) is a bead based technology which measures the interaction between molecules. The assay consists of two hydrogel coated beads which, when bought into close proximity by a binding interaction, allow the transfer of singlet oxygen from a donor bead to an acceptor bead.
(§3) Upon binding and excitation with laser light at 680 nm, a photosensitizer in the donor bead converts ambient oxygen to a more excited singlet state. This singlet oxygen then diffuses across to react with a chemiluminescer in the acceptor bead. Fluorophores within the same bead are activated resulting in the emission of light at 580-620 nm.
(§4) Screening of the compounds of the invention was performed using the Alphascreen GST (glutathione s-transferase) detection kit system. Test compounds were titrated into the assay which consisted of GST tagged Bclw ΔC29 protein (0.05 nM Final concentration) and Biotinylated Bim BH3-26 peptide, Biotin-[…] (3.0 nM Final concentration). For the GST tagged BCl-xL assay, GST tagged BCl-xL ΔC25 protein (0.6 nM Final concentration) and Biotinylated Bim BH3-26 peptide, Biotin-[…] (5.0 nM final concentration) were used. To this reaction mix anti-GST coated acceptor beads and Streptavidin coated donor beads, both at 15 μg/ml Final concentration, were added and the assay mixture incubated for 4 hours at room temperature before reading. Similarly when the Bcl-2 protein was Mcl-1, GST tagged Mcl-1 protein (0.4 nM Final concentration) and Biotinylated Bak BH3 peptide, Biotin-[…]-OH (4.0 nM Final concentration) were used.
(§5) • 1) prepare a 384 well with 4.75 μL of buffer and 0.25 μL of compounds (20 mM in DMSO) per well. • 2) Mix the binding partners, in one tube add Bcl-w, BCl-xL or Mcl-1 and the acceptor beads, in the second tube add Biotinylated BH3 peptide and the donor beads. • 3) Pre-incubate the two pairs of binding partners for 30 minutes. • 4) Add 1 μL of acceptor beads:Bcl-w, BCl-xL or Mcl-1 protein mix to each well. • 5) Seal the plate and incubate at room temperature for 30 minutes. • 6) Add 10 μL of donor bead:BH3 peptide mix to each well. • 7) Seal the plate, cover with foil and incubate for 4 hours.
(§6) Assay buffer contained 50 mM Hepes pH 7.4, 10 mM DTT, 100 mM NaCl, 0.05% Tween and 0.1 mg/ml casein. Bead dilution buffer contained 50 mM Tris, pH 7.5, 0.01% Tween and 0.1 mg/ml casein. The final DMSO concentration in the assay was 0.5%. Assays were performed in 384 well white Optiplates and analyzed on the PerkinElmer Fusion alpha plate reader (Ex680, Em520-620 nM).
(§7) The GST Alphascreen detection kit and Optiplates were purchased from PerkinElmer.

SCLC cell line NCI-H146 = experiment: CellTitre-Glow luminescent cytotoxicity assay, NCI-H146; assay type: cell-based; details: Homo sapiens; NCI-H146 cells, 48 hr incubation
Procedure: (§8) • 1. SCLC cell lines NCI-H889, NCI-H1963, and NCI-H146 were purchased from American Type Culture Collection. Cells were maintained in RPMI 1640 (Invitrogen Corp., Grand Island, N.Y.) supplemented with 10% fetal bovine serum (FBS, Invitrogen), 1% sodium pyruvate, 25 mM HEPES, 4.5 g/L glucose and 1% penicillin/streptomycin (Sigma) in a humidified chamber at 37° C. containing 5% CO2. • 2. cells were grown as suspension aggregates in a T162 flask with 25 ml medium and kept at concentration of 1 million/mL. Test Compound Stocks: • 1. test compounds were prepared as 10 mM stocks in DMSO and stored at −20° C. Test Compound Serial Dilutions: • 1. prewarmed medium to 37° C. • 2. thawed compounds to room temperature. • 3. determined what will be the highest concentration to be tested. (i.e. 10 μM). • 4. prepared a 2× stock in culture medium of the first dose (i.e. 2×10 μM=20 μM) in an Eppendorf tube (i.e. 4 μl of 5 mM stock into 1000 μl=20 μM). • 5. inverted tube several times to mix. […] Columns 1-10 comprised the serial test compound treatments, column 11 was the untreated control and column 12 was the ‘no cell’ control for determining the background. • 1. in a 96 well plate was added 50 μl medium/well in columns 2 thru 11 and 100 μl was added to column 12. • 2. in column 1 was added 100 μl of 2× compound. • 3. made serial dilutions by transferring 50 μl to column 2, and so on up to column 10. After adding 50 μl to column 10 and mixing, discarded 50 μl. • 4. stored plates at 37° C. until ready to add cells. Cell Preparation • 1. Cell were washed one time in the culture medium and prepared as a suspension. • a. cell were first spun down to remove the medium and then ˜1 ml 0.25% trypsin was added and gently mixed and incubated for no more than three minutes at room temperature. • b. ˜10 ml of the medium was added and the cells were gently pipetted several times. • c. cells were then counted and spun down to the volume necessary for the total cell number needed, then resuspended in the medium to 200 cells/μl concentration (50,000 cells/well). • 2. […]

SCLC cell line NCI-H889 = experiment: CellTitre-Glow luminescent cytotoxicity assay, NCI-H889; assay type: cell-based; details: Homo sapiens; NCI-H889 cells, 48 hr incubation
Procedure: as §8

SCLC cell line NCI-H1963 = experiment: CellTitre-Glow luminescent cytotoxicity assay, NCI-H1963; assay type: cell-based; details: Homo sapiens; NCI-H1963 cells, 48 hr incubation
Procedure: as §8

GST tagged Mcl-1 protein = GST tagged Mcl-1 protein (Homo sapiens, UniProt Q07820); experiment: Alphascreen competition binding assay, GST tagged Mcl-1 vs biotinylated Bak BH3 peptide; details: competition with Bak BH3 peptide; unit inferred
Sequence of GST tagged Mcl-1 protein (Q07820 whole entry): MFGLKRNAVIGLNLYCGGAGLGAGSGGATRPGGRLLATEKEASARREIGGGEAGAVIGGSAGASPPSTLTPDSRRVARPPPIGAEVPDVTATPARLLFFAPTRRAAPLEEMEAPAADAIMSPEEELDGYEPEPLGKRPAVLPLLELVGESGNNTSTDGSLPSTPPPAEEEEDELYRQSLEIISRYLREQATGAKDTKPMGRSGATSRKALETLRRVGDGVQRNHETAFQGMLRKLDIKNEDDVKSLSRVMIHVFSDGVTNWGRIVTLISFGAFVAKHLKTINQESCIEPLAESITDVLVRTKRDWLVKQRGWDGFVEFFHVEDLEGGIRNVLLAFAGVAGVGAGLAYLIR
Description: as §1, §2, §3, §4, §5, §6, §7

[2] = system: mouse embryo fibroblasts (MEFs): wild type, Bax/Bak double knockout, Noxa-expressing, Bad-expressing; experiment: Cell viability assay on mouse embryo fibroblasts (propidium iodide uptake); assay type: cell-based; details: propidium iodide uptake after 24 hours
Procedure: FIG. 1 graphically depicts the effect of Compound 1 (FIG. 1A) and Etoposide (FIG. 1B), at increasing concentrations, on the % viability of certain mouse embryo fibroblast (MEF) cells as assessed by propidium iodide uptake after 24 hours. Noxa and Bad were introduced by retrovirally infecting the cells with pMIG retroviruses as described by Chen et al., 2005.
The efficacy of the compounds of the present invention can also be determined in cell based killing assays using a variety of cell lines and mouse tumor models. For example, their activity on cell viability can be assessed on a panel of cultured tumorigenic and non-tumorigenic cell lines, as well as primary mouse or human cell populations, e.g. lymphocytes. For these assays, 5,000-20,000 cells are cultured at 37° C. and 10% CO2 in appropriate growth media, eg: 100 μL Dulbecco's Modified Eagle's medium supplemented with 10% foetal calf serum, asparaginase and 2-mercaptoethanol in the case of pre-B Eμ-Myc mouse tumors in 96 well plates. […] Cell viability is determined by the ability of the cells to exclude propidium iodide (10 μg/mL by immunofluorescence analysis of emission wavelengths of 660-675 nm on a flow cytometer (BD FACScan). Alternatively, a high throughput calorimetric assay such as the Cell Titre 96 could be used. Aqueous Non-Radioactive Cell Proliferation Assay (Promega) may be used. Cell death by apoptosis is confirmed by pre-incubation of the cells with 50 μM of a caspase inhibitor such as zVAD-fmk.
Neutralisation of both Bcl-xL and Mcl-1 anti-apoptotic proteins in normal cells is required before a cell undergoes apoptosis via the downstream Bax/Bak pathway [Chen et al., 2005; Willis et al., 2005]. A compound that only targets Bcl-xL should not affect normal cells, but could kill certain cancer cells if they rely more on Bcl-xL and less on Mcl-1 for survival. To mirror this, compound 1 was tested for its effect on survival of wild type (wt) mouse embryo fibroblasts (MEFs), Bax/Bak double knockout (BB DKO) MEFs, MEFs that expressed Noxa, and MEFs that expressed Bad. Noxa specifically neutralizes Mcl-1.

Sequence of GST tagged BCl-xL ΔC25 protein (Q07817 1-208 limits assumed): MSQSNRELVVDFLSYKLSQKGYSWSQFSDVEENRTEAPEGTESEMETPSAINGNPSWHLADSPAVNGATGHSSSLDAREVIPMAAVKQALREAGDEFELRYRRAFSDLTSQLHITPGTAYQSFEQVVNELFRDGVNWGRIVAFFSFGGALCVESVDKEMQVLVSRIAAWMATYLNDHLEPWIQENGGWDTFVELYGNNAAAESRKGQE

IC50 [1]	IC50 (GST tagged Mcl-1 protein)	SMILES	EC50 (SCLC cell line NCI-H146)	EC50 (SCLC cell line NCI-H889)	EC50 (SCLC cell line NCI-H1963)	Selectivity of killing of Noxa-expressing MEFs versus MEFs where both Bcl-xL and Mcl-1 are protective (% viability) ([2]; FIG. 1A/1B)	Effect on Bax/Bak double knockout (BB DKO) MEFs ([2]; FIG. 1B)
3 nM	20000 nM	CN(C)CC[C@H](CSc1ccccc1)Nc1ccc(S(=O)(=O)Nc2ncnc3cc(N4CCN(CC5=C(c6ccc(Cl)cc6)CCC(C)(C)C5)CC4)ccc23)cc1S(=O)(=O)C(F)(F)F [Compound 6, N-(7-{4-[2-(4-Chloro-phenyl)-5,5-dimethyl-cyclohex-1-enylmethyl]-piperazin-1-yl}-quinazolin-4-yl)-4-((R)-3-dimethylamino-1-phenylsulfanylmethyl-propylamino)-3-trifluoromethanesulfonyl-benzenesulfonamide]					
20 nM	10000 nM	CC1(C)CCC(c2ccc(Cl)cc2)=C(CN2CCN(c3ccc4c(NS(=O)(=O)c5ccc(N[C@H](CCN6CCOCC6)CSc6ccccc6)c([N+](=O)[O-])c5)ncnc4c3)CC2)C1 [Compound 7, N-(7-{4-[2-(4-Chloro-phenyl)-5,5-dimethyl-cyclohex-1-enylmethyl]-piperazin-1-yl}-quinazolin-4-yl)-4-((R)-3-morpholin-4-yl-1-phenylsulfanylmethyl-propylamino)-3-nitro-benzenesulfonamide]					
3 nM	7000 nM	CN(C)CC[C@H](CSc1ccccc1)Nc1ccc(S(=O)(=O)Nc2ncnc3cc(N4CCN(CC5=C(c6ccc(Cl)cc6)CCC(C)(C)C5)CC4)ccc23)cc1[N+](=O)[O-] [Compound 5, N-(7-{4-[2-(4-Chloro-phenyl)-5,5-dimethyl-cyclohex-1-enylmethyl]-piperazin-1-yl}-quinazolin-4-yl)-4-((R)-3-dimethylamino-1-phenylsulfanylmethyl-propylamino)-3-nitro-benzenesulfonamide]					

The remaining lines, values behind:

SMILES	IC50 [1]	IC50 (GST tagged Mcl-1 protein)	EC50 (SCLC cell line NCI-H146)	EC50 (SCLC cell line NCI-H889)	EC50 (SCLC cell line NCI-H1963)	Selectivity of killing of Noxa-expressing MEFs versus MEFs where both Bcl-xL and Mcl-1 are protective (% viability) ([2]; FIG. 1A/1B)	Effect on Bax/Bak double knockout (BB DKO) MEFs ([2]; FIG. 1B)
O=S(=O)(Nc1ncnc2cc(N3CCN(Cc4ccccc4-c4ccc(Cl)cc4)CC3)ccc12)c1ccc(N[C@H](CCN2CCOCC2)CSc2ccccc2)c(S(=O)(=O)C(F)(F)F)c1 [Compound 4, N-{7-[4-(4′-Chloro-biphenyl-2-ylmethyl)-piperazin-1-yl]-quinazolin-4-yl}-4-((R)-3-morpholin-4-yl-1-phenylsulfanylmethyl-propylamino)-3-trifluoromethanesulfonyl-benzenesulfonamide]	16 nM		0.63 µM	0.82 µM	0.4 µM		
CC1(C)CCC(c2ccc(Cl)cc2)=C(CN2CCN(c3ccc4c(NS(=O)(=O)c5ccc(N[C@H](CCN6CCOCC6)CSc6ccccc6)c(S(=O)(=O)C(F)(F)F)c5)ncnc4c3)CC2)C1 [Compound 8, N-(7-{4-[2-(4-Chloro-phenyl)-5,5-dimethyl-cyclohex-1-enylmethyl]-piperazin-1-yl}-quinazolin-4-yl)-4-((R)-3-morpholin-4-yl-1-phenylsulfanylmethylpropylamino)-3-trifluoromethanesulfonyl benzenesulfonamide]	29 nM	10000 nM					
CN(C)CC[C@H](CSc1ccccc1)Nc1ccc(S(=O)(=O)Nc2ncnc3cc(N4CCN(Cc5ccccc5-c5ccc(Cl)cc5)CC4)ccc23)cc1S(=O)(=O)C(F)(F)F [Compound 2, N-{7-[4-(4′-Chloro-biphenyl-2-ylmethyl)-piperazin-1-yl]-quinazolin-4-yl}-4-((R)-3-dimethylamino-1-phenylsulfanylmethyl-propylamino)-3-trifluoromethanesulfonyl-benzenesulfonamide]	6 nM	50000 nM					
O=[N+]([O-])c1cc(S(=O)(=O)Nc2ncnc3cc(N4CCN(Cc5ccccc5-c5ccc(Cl)cc5)CC4)ccc23)ccc1N[C@H](CCN1CCOCC1)CSc1ccccc1 [Compound 3, N-{7-[4-(4′-Chloro-biphenyl-2-ylmethyl)-piperazin-1-yl]-quinazolin-4-yl}-4-((R)-3-morpholin-4-yl-1-phenylsulfanylmethyl-propylamino)-3-nitro-benzenesulfonamide]	34 nM	6000 nM	3.7 µM	1.3 µM	1.4 µM		
COc1cc([C@@H]2c3cc4c(cc3[C@@H](O[C@@H]3O[C@@H]5CO[C@@H](C)O[C@H]5[C@H](O)[C@H]3O)[C@H]3COC(=O)[C@H]23)OCO4)cc(OC)c1O [etoposide]						less selectively than compound 1	resistance of BB DKO MEFs

— patent US8168645B2, “Arylsulfonamide compounds” (Genentech, Inc., priority 2006, dated 2012)
